Experimental data as given in publication PMC10563079 (Molecules, 2023).
Values joined by “and” are separate entries in the source; they are usually repeats but may differ in a detail not shown here. Identical values can stand only once. Like-named read-outs stand apart in the source and are kept apart here. Each block holds one molecule with its values, some of them ahead of it. Bridge positions count the residues as written; N and C are the ends. Ends that are not written are not given here. Peptide text beside a SMILES is read from it.

Tests used:
[1] = molecular target: T1, sPHGDH (1-307) (Homo sapiens, UniProt O43175); assay: sPHGDH enzyme activity assay (NADH fluorescence); assay type: biochemical; conditions: sPHGDH; 12 h pre-incubation; read-out: IC50 Value
T1 construct: the truncated version of PHGDH (sPHGDH, 1-307); made in house
T1 sequence (O43175 1-307): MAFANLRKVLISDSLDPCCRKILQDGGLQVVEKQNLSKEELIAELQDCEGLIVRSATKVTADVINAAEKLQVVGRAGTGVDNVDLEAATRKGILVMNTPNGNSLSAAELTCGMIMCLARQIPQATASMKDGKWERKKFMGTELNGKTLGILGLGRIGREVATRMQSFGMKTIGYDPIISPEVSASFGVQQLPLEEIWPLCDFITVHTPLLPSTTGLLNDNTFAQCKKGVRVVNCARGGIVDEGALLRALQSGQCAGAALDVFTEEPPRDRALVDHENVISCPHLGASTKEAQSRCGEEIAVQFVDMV
Protocol: (§1) PHGDH activity in the presence of peptides was measured in 96-well plates (100 μL per well) at 25 °C, through monitoring the NADH fluorescence (excitation at 360 nm and emission at 460 nm) over time. PAST1 and its substrate glutamate were also included in order to prevent product inhibition. In the enzyme assays, protein expression and purification, including the truncated version of PHGDH (sPHGDH, 1-307), the full-length PHGDH (1-533), and PAST1, were carried out as described in our previous papers. To evaluate the effects of peptides on enzyme activity, the peptides were pre-incubated with enzyme samples (sPHGDH 453.3 nM or PHGDH 30.9 nM) in the assay buffer (HEPES 50 mM, pH 7.5, 10 mM MgCl2, and 1 mM EDTA) for 12 h. Then, 1.98 μM PAST1, 1 mM NAD^+, and 30 mM glutamate were added and pre-incubated for 10 min before initiating the enzyme reaction via the addition of the substrate (1 mM 3-PG). Fluorescence signals were recorded for 3 min with the kinetics-reading mode of the Biotek plate reader (Synergy). IC50 values were obtained through fitting the data using a three-parameter Hill model of the graph of log dose against the percentage inhibition from three repeated experiments. For those peptides containing two disulfide bonds, a second step of oxidation reaction was carried out to generate the second disulfide pair. […] The purified Acm-protected peptide was then treated with iodine (I2, 1 wt% in MeOH), dropwise under acidic conditions until the solution became brown.

[2] = molecular target: T2, sPHGDH (Homo sapiens, UniProt O43175); assay: Microscale Thermophoresis (MST) binding assay
T2 construct: the truncated version of PHGDH (sPHGDH, 1-307); made in house
T2 sequence (O43175 1-307): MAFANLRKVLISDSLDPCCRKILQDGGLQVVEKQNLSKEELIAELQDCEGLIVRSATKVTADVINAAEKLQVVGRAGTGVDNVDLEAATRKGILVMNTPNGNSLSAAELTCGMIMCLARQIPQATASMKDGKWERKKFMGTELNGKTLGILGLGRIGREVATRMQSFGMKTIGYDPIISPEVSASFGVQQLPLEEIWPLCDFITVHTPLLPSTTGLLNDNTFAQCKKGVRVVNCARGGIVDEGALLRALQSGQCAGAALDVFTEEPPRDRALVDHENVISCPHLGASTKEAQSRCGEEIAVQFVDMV
Protocol: In this study, we first used Microscale Thermophoresis assays (MST) to evaluate whether the active peptides found in the enzyme inhibition assay directly bind sPHGDH (Table 2).
The binding affinity between the recombinant sPHGDH and cyclic peptides was measured with a NanoTemper Monolith NT.115 instrument (NanoTemper Technologies, Munich, Germany). sPHGDH was first adjusted to a concentration of 10 μM and then labeled with Monolith™ NT.115 Protein Labeling Kit RED-NHS (NanoTemper Technologies, Germany), according to the protocol of the manufacturer. After the protein labeling experiment was completed, sPHGDH was diluted with binding buffer (50 mM HEPES, pH 7.5, 1 mM EDTA, 10 mM MgCl2, 100 mM NaCl, and 0.005% Tween 20) to ensure that the fluorescent intensity of sPHGDH during the MST assay was about 500 RU. In this assay, the final concentration of sPHGDH after mixing with the peptide was 20 nM. Subsequently, the peptides were serially diluted in binding buffer (16 points, 1:2 dilutions, from 0.5 mM), then mixed and incubated with an equal volume of diluted sPHGDH at room temperature for 16 h. After incubation, the samples were loaded into premium treated capillaries and measured by the NanoTemper Monolith NT.115 instrument (NanoTemper Technologies, Germany). […]

[3] = molecular target: T3, full-length PHGDH (1-533) (Homo sapiens, UniProt O43175); assay: full-length PHGDH enzyme activity assay (NADH fluorescence); assay type: biochemical; conditions: IC50 value (μM), full-length PHGDH activity
T3 construct: the full-length PHGDH (1-533); made in house
T3 sequence (O43175 1-533): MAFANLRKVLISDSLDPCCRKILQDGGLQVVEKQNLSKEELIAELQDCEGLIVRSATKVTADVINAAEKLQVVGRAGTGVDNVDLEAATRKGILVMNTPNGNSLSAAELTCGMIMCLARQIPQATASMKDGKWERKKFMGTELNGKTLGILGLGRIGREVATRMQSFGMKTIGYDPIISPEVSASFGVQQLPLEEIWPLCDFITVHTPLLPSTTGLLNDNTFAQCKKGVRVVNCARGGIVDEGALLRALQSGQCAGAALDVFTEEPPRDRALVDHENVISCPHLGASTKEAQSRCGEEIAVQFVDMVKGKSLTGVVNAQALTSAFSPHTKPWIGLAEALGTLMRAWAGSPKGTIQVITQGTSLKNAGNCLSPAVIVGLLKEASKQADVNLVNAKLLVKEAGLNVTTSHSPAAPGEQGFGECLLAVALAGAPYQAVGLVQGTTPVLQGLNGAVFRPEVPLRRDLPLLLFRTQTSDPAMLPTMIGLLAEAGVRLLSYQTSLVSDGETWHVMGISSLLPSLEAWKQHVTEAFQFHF
Protocol: as §1

[4] = molecular target: the molecule itself; assay: cross-linking; sPHGDH 5 µM with peptides (0, 10, 50, 100, 250, 500 µM) and 2.5 mM BS3 in PBS (40 mM, pH 7.3), 25 °C, 30 min; SDS/PAGE; dimer to monomers
[5] = molecular target: truncated version of PHGDH (sPHGDH, 1-307) (human) (UniProt O43175)
[6] = molecular target: truncated version of PHGDH (sPHGDH, 1-307) (human) (UniProt O43175); remark: listed apart in the source

Molecule: CSCC[C@@H]1NC(=O)[C@@H]2CSSC[C@H](NC(=O)[C@H](Cc3c[nH]c4ccccc34)NC(=O)[C@H](CCCCN)NC(=O)CNC(=O)[C@H](CC(=O)O)NC(=O)[C@H](CCCNC(=N)N)NC1=O)C(=O)N[C@@H](CCCNC(=N)N)C(=O)N[C@@H](CCCCN)C(=O)N[C@@H](CCCCN)C(=O)N[C@H](C(=O)O)CSSC[C@H](NC(C)=O)C(=O)N[C@@H]([C@@H](C)O)C(=O)N1CCC[C@H]1C(=O)N[C@@H](CCC(N)=O)C(=O)N[C@@H](C)C(=O)N[C@@H]([C@@H](C)O)C(=O)N[C@@H](C)C(=O)N2 [Cyc2-3, C1TPQA TAC8MR DGKWC15 RKKC19] (Ac-CTPQATACMRDGKWCRKKC-OH; disulfide 1-19, 8-15)
IC50 [3]: 53.1 µM and 32.9 µM | Kd [2]: 5.1 ± 1 µM

B1: truncated version of PHGDH (sPHGDH, 1-307) (domain or fragment, human, UniProt O43175 1-307, looked up)
chain: MAFANLRKVLISDSLDPCCRKILQDGGLQVVEKQNLSKEELIAELQDCEGLIVRSATKVTADVINAAEKLQVVGRAGTGVDNVDLEAATRKGILVMNTPNGNSLSAAELTCGMIMCLARQIPQATASMKDGKWERKKFMGTELNGKTLGILGLGRIGREVATRMQSFGMKTIGYDPIISPEVSASFGVQQLPLEEIWPLCDFITVHTPLLPSTTGLLNDNTFAQCKKGVRVVNCARGGIVDEGALLRALQSGQCAGAALDVFTEEPPRDRALVDHENVISCPHLGASTKEAQSRCGEEIAVQFVDMV
modifications: labelled with Monolith NT.115 Protein Labeling Kit RED-NHS (in the MST assay only)
notes: human phosphoglycerate dehydrogenase (PHGDH), catalytic unit, residues 1-307; Exists predominantly as a homo-dimer with a small fraction of monomer; also called catalytic unit of PHGDH; source: recombinant
stoichiometry N [4]: 2

Further lines, results first:

IC50 [1]: 5.6 ± 1.4 µM | Kd ([2]; MST, sPHGDH 20 nM, 1:1 binding mode, read-out: KD): 13.4 ± 3.1 µM
Molecule: CSCC[C@@H]1NC(=O)[C@H](CO)NC(=O)[C@H](CC(C)C)NC(=O)[C@H]([C@@H](C)O)NC(=O)[C@H](C)NC(=O)[C@H](CCC(N)=O)NC(=O)[C@@H]2CCCN2C(=O)[C@H]([C@@H](C)O)NC(=O)[C@@H](NC(C)=O)CSSC[C@@H](C(=O)O)NC(=O)[C@H](CCCCN)NC(=O)[C@H](CCCCN)NC(=O)[C@H](CCC(N)=O)NC(=O)[C@H](CCC(=O)O)NC(=O)[C@H](Cc2c[nH]c3ccccc23)NC(=O)[C@H](CO)NC(=O)CNC(=O)[C@H](CC(N)=O)NC(=O)[C@H](CCCCN)NC1=O [Cyc1-12, C1TPQA TLSMK NGSWE QKKC19] (Ac-CTPQATLSMKNGSWEQKKC-OH; disulfide 1-19)

IC50 of inhibition of sPHGDH enzyme activity (NADH fluorescence); the pair blocked is the sPHGDH homo-dimer (m1+m1) [5]: 13.4 µM | IC50 of inhibition of sPHGDH enzyme activity (NADH fluorescence); the pair blocked is the sPHGDH homo-dimer (m1+m1), differs from the table [6]: 13.7 µM
B2: cyclic peptide cyc1-5 (peptide)
peptide: CTPQATASMLDGKWEWKKC
modifications: disulfide 1-19; not fully specified (N-terminus); printed as C_1_TPQA TASML DGKWE WKKC_19_
